The first test has as its target GST-hRIPK1 (8-327) (Homo sapiens (Human), UniProt Q13546). Briefly: Fluorescent Polarization Binding (FP Binding) assay.
Conditions: not given
GST-hRIPK1 (8-327), sequence (Q13546 8-327): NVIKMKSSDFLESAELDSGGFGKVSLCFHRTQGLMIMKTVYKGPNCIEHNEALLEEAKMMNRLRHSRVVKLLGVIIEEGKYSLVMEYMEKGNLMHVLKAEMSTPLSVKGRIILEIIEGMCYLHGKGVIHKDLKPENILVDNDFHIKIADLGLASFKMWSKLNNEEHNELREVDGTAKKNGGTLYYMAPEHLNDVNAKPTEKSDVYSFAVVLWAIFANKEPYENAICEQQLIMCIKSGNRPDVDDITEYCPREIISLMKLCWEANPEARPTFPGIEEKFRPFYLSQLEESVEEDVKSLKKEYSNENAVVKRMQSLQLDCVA
As for `CN1C(=O)[C@@H](NC(=O)c2ncc(Cc3ccccc3)o2)[C@H]2C[C@H]2c2nccnc21` [Example 194, 5-benzyl-N-((7S,7aS,8aR)-5-methyl-6-oxo-5,6,7,7a,8,8a-hexahydrocyclopropa[d]pyrazino[2,3-b]azepin-7-yl)oxazole-2-carboxamide], the IC50 (commonly the concentration at which inhibition is half-maximal) was 0.1 to 1000 nM.

The subject of the next test is FADD-deficient Jurkat cells. The test is described as follows: Cellular necroptosis assay (human TNFα-induced necrosis, CellTiter-Glo). The conditions noted are these: Homo sapiens, Jurkat, 48 h, TNFα 10 ng/mL, read-out: Cell IC50. Format: cell-based.
Regarding `CN1C(=O)[C@@H](NC(=O)c2nnc(Cc3ccccc3)[nH]2)C[C@H](F)c2ccccc21` (mixture of isomers) [Example 12, 5-benzyl-N-((3S,5S)-5-fluoro-1-methyl-2-oxo-2,3,4,5-tetrahydro-1H-benzo[b]azepin-3-yl)-4H-1,2,4-triazole-3-carboxamide and 5-benzyl-N-((3R,5R)-5-fluoro-1-methyl-2-oxo-2,3,4,5-tetrahydro-1H-benzo[b]azepin-3-yl)-4H-1,2,4-triazole-3-carboxamide], the concentration for half-maximal inhibition (IC50) lay in the range of 0.1 to 1000 nM.
The same measure, in the same setting: to `C[C@H]1Oc2cccnc2N(C)C(=O)[C@H]1NC(=O)c1noc(Cc2ccccc2)n1` [Example 222, 5-benzyl-N-((2R,3S)-2,5-dimethyl-4-oxo-2,3,4,5-tetrahydropyrido[3,2-b][1,4]oxazepin-3-yl)-1,2,4-oxadiazole-3-carboxamide] belongs 0.1 to 1000 nM; to `CN1C(=O)[C@@H](NC(=O)c2cc(Cc3ccccc3)on2)[C@H]2C[C@H]2c2ccccc21` [Example 7A, 5-benzyl-N-((2S)-4-methyl-3-oxo-1,1a,2,3,4,8b-hexahydrobenzo[b]cyclopropa[d]azepin-2-yl)isoxazole-3-carboxamide], 0.1 to 1000 nM; to `CN1C(=O)[C@@H](NC(=O)c2cc(C3(c4ccccc4)CC3)[nH]n2)COc2cccnc21` [Example 73, (S)—N-(5-methyl-4-oxo-2,3,4,5-tetrahydropyrido[3,2-b][1,4]oxazepin-3-yl)-5-(1-phenylcyclopropyl)-1H-pyrazole-3-carboxamide], 0.1 to 1000 nM.
The same measure, in the same setting: the value for `CN1C(=O)[C@@H](NC(=O)c2nn(Cc3ccc(F)cn3)cc2F)COc2ccccc21` [Example 214, (S)-4-fluoro-1-((5-fluoropyridin-2-yl)methyl)-N-(5-methyl-4-oxo-2,3,4,5-tetrahydrobenzo[b][1,4]oxazepin-3-yl)-1H-pyrazole-3-carboxamide] was 0.1 to 1000 nM.
The same measure, in the same setting: to `CN1C(=O)[C@@H](NC(=O)c2nn(Cc3ccccc3)cc2F)[C@H]2C[C@H]2c2cccnc21` [Example 82A, 1-benzyl-4-fluoro-N-((1aS,2S,8bR)-4-methyl-3-oxo-1,1a,2,3,4,8b-hexahydrocyclopropa[d]pyrido[2,3-b]azepin-2-yl)-1H-pyrazole-3-carboxamide] belongs 0.1 to 1000 nM; to `[2H]C([2H])([2H])N1C(=O)[C@@H](NC(=O)c2nn(Cc3ccccc3)cc2F)COc2cccnc21` [Example 175, (S)-1-benzyl-4-fluoro-N-(5-trideuteriomethyl-4-oxo-2,3,4,5-tetrahydropyrido[3,2-b][1,4]oxazepin-3-yl)-1H-pyrazole-3-carboxamide], 0.1 to 1000 nM; to `COc1cccc(Cn2cc(F)c(C(=O)N[C@H]3COc4ccccc4N(C)C3=O)n2)n1` [Example 220, (S)-4-fluoro-1-((6-methoxypyridin-2-yl)methyl)-N-(5-methyl-4-oxo-2,3,4,5-tetrahydrobenzo[b][1,4]oxazepin-3-yl)-1H-pyrazole-3-carboxamide], 0.1 to 1000 nM.
As to `CN1C(=O)[C@@H](NC(=O)c2ncc(Cc3ccccc3)s2)COc2cccnc21` [Example 86, (S)-5-benzyl-N-(5-methyl-4-oxo-2,3,4,5-tetrahydropyrido[3,2-b][1,4]oxazepin-3-yl)thiazole-2-carboxamide], the IC50 fell in the range of 0.1 to 1000 nM.
As for `O=C(N[C@@H]1C(=O)Nc2c(F)cc(F)cc2[C@@H]2C[C@H]12)c1nnc(Cc2ccccc2)o1` [Example 89B, 5-benzyl-N-((1aS,2S,8bR)-5,7-difluoro-3-oxo-1,1a,2,3,4,8b-hexahydrobenzo[b]cyclopropa[d]azepin-2-yl)-1,3,4-oxadiazole-2-carboxamide], the IC50 lay within 0.1 to 1000 nM.
Take `CN1C(=O)[C@@H](NC(=O)c2cc(Cc3ccccc3)[nH]n2)[C@H]2C[C@H]2c2ccccc21` [Example 60A, 5-benzyl-N-((1aS,2S,8bR)-4-methyl-3-oxo-1,1a,2,3,4,8b-hexahydrobenzo[b]cyclopropa[d]azepin-2-yl)-1H-pyrazole-3-carboxamide]: the IC50 is 0.1 to 1000 nM.
For the compound `CN1C(=O)[C@@H](NC(=O)c2nc3cccc(-c4ccccc4F)c3s2)COc2ccccc21` [Example 79, (S)-7-(2-fluorophenyl)-N-(5-methyl-4-oxo-2,3,4,5-tetrahydrobenzo[b][1,4]oxazepin-3-yl)benzo[d]thiazole-2-carboxamide], the half-inhibitory concentration (IC50) was 0.1 to 1000 nM.
For `O=C(N[C@H]1COc2cccnc2NC1=O)c1cc(C2(c3ccccc3)CC2)on1` [Example 62, (S)—N-(4-oxo-2,3,4,5-tetrahydropyrido[3,2-b][1,4]oxazepin-3-yl)-5-(1-phenylcyclopropyl)isoxazole-3-carboxamide], the IC50 was 0.1 to 1000 nM.
In the case of `C[C@H]1Oc2cccnc2N(C)C(=O)[C@H]1NC(=O)c1nnc(C(F)(F)c2ccccc2)o1` [Example 221, 5-(difluoro(phenyl)methyl)-N-((2R,3S)-2,5-dimethyl-4-oxo-2,3,4,5-tetrahydropyrido[3,2-b][1,4]oxazepin-3-yl)-1,3,4-oxadiazole-2-carboxamide], the IC50 was 0.1 to 1000 nM.
Turning to `CN1C(=O)[C@@H](NC(=O)c2nnc(Cc3ccccc3)o2)CCc2ccccc21` [Example 225, (S)-5-benzyl-N-(1-methyl-2-oxo-2,3,4,5-tetrahydro-1H-benzo[b]azepin-3-yl)-1,3,4-oxadiazole-2-carboxamide], the IC50 lay in the range of 0.1 to 1000 nM.
With `CN1C(=O)C(NC(=O)c2cc(Cc3ccccc3)on2)[C@@H]2C[C@@H]2c2ccccc21` (stereo in doubt) [Example 7B, 5-benzyl-N-((2S)-4-methyl-3-oxo-1,1a,2,3,4,8b-hexahydrobenzo[b]cyclopropa[d]azepin-2-yl)isoxazole-3-carboxamide], the IC50 is 1000 to 10000 nM.
With `CN1C(=O)[C@H](NC(=O)c2nnc(Cc3ccccc3)[nH]2)C[C@@H](F)c2ccccc21` (mixture of isomers) [Example 12B, 5-benzyl-N-((3S,5S)-5-fluoro-1-methyl-2-oxo-2,3,4,5-tetrahydro-1H-benzo[b]azepin-3-yl)-4H-1,2,4-triazole-3-carboxamide and 5-benzyl-N-((3R,5R)-5-fluoro-1-methyl-2-oxo-2,3,4,5-tetrahydro-1H-benzo[b]azepin-3-yl)-4H-1,2,4-triazole-3-carboxamide], the IC50 was in the range of 0.1 to 1000 nM.
Turning to `CN1C(=O)[C@@H](NC(=O)c2ncc(Cc3cccc(C#N)c3)s2)CCc2cccnc21` [Example 219, (S)-5-(3-cyanobenzyl)-N-(9-methyl-8-oxo-6,7,8,9-tetrahydro-5H-pyrido[2,3-b]azepin-7-yl)thiazole-2-carboxamide], the IC50 was 0.1 to 1000 nM.
As for `CN1C(=O)[C@@H](NC(=O)c2nnc(Cc3ccccc3)s2)COc2cccnc21` [Example 85, (S)-5-benzyl-N-(5-methyl-4-oxo-2,3,4,5-tetrahydropyrido[3,2-b][1,4]oxazepin-3-yl)-1,3,4-thiadiazole-2-carboxamide], the IC50 is 0.1 to 1000 nM.
As for `CN1C(=O)[C@@H](NC(=O)c2nn(Cc3ncccn3)cc2F)COc2ccccc21` [Example 224, (S)-4-fluoro-N-(5-methyl-4-oxo-2,3,4,5-tetrahydrobenzo[b][1,4]oxazepin-3-yl)-1-(pyrimidin-2-ylmethyl)-1H-pyrazole-3-carboxamide], the IC50 lay in the range of 0.1 to 1000 nM.
For `O=C(N[C@@H]1C(=O)Nc2c(F)cc(F)cc2[C@@H]2C[C@H]12)c1cn(Cc2ccccc2)nn1` [Example 90B, 1-benzyl-N-((1aS,2S,8bR)-5,7-difluoro-3-oxo-1,1a,2,3,4,8b-hexahydrobenzo[b]cyclopropa[d]azepin-2-yl)-1H-1,2,3-triazole-4-carboxamide], the IC50 is 0.1 to 1000 nM.
On to `O=C(N[C@H]1CCc2ccccc2-n2cnnc21)c1nnc(Cc2ccccc2)[nH]1` [Example 69A, (S)-5-benzyl-N-(5,6-dihydro-4H-benzo[f][1,2,4]triazolo[4,3-a]azepin-4-yl)-4H-1,2,4-triazole-3-carboxamide], for which the IC50 is 0.1 to 1000 nM.
`CN1C(=O)[C@@H](NC(=O)c2noc(Cc3ccccc3)n2)COc2cccnc21` [Example 215, (S)-5-benzyl-N-(5-methyl-4-oxo-2,3,4,5-tetrahydropyrido[3,2-b][1,4]oxazepin-3-yl)-1,2,4-oxadiazole-3-carboxamide]: the IC50 lay within 0.1 to 1000 nM.
As for `CN1C(=O)[C@@H](NC(=O)c2cnc(C3(c4ccccc4)CC3)[nH]2)COc2ccccc21` [Example 88, (S)—N-(5-methyl-4-oxo-2,3,4,5-tetrahydrobenzo[b][1,4]oxazepin-3-yl)-2-(1-phenylcyclopropyl)-1H-imidazole-5-carboxamide], the IC50 fell in the range of 1000 to 10000 nM.
Still for that read-out and setting: the value for `[2H]C([2H])([2H])N1C(=O)[C@@H](NC(=O)c2nnc(C3(c4ccccc4)CC3)o2)COc2cccnc21` [Example 173, (S)—N-(5-trideuteriomethyl-4-oxo-2,3,4,5-tetrahydropyrido[3,2-b][1,4]oxazepin-3-yl)-5-(1-phenylcyclopropyl)-1,3,4-oxadiazole-2-carboxamide] was 0.1 to 1000 nM.

Staying with this test, now noted: TNFα 10 ng/mL, 48 h; read-out: Cell IC50.
Turning to `CN1C(=O)[C@@H](NC(=O)c2nnc([C@H]3CCc4ccccc43)[nH]2)COc2cccnc21` [Example 54B, 5-((S)-2,3-dihydro-1H-inden-1-yl)-N—((S)-5-methyl-4-oxo-2,3,4,5-tetrahydropyrido[3,2-b][1,4]oxazepin-3-yl)-4H-1,2,4-triazole-3-carboxamide], the IC50 was 0.1 to 1000 nM.
Turning to `CN1C(=O)[C@@H](NC(=O)c2nnc(Cc3ccccc3)[nH]2)C[C@@H](F)c2ccccc21` (mixture of isomers) [Example 11A, 5-benzyl-N-((3S,5R)-5-fluoro-1-methyl-2-oxo-2,3,4,5-tetrahydro-1H-benzo[b]azepin-3-yl)-4H-1,2,4-triazole-3-carboxamide and 5-benzyl-N-((3R,5S)-5-fluoro-1-methyl-2-oxo-2,3,4,5-tetrahydro-1H-benzo[b]azepin-3-yl)-4H-1,2,4-triazole-3-carboxamide], the IC50 was in the range of 0.1 to 1000 nM.

For the origin of these results see patent US10604535B2, “Compounds, compositions and methods” (Denali Therapeutics Inc., priority 2016, dated 2020).
